Counter-ions that a name gives are not always drawn.
Assays:
[1] = tested on: MOLM-14 (acute myeloid leukemia) cell line; test: CellTiter-Glo luminescent cell viability assay, MOLM-14; type: cell-based, human; details: Homo sapiens; for viability at 4 µM: MOLM-14, compound at 4 μM; for viability at 4 µM / viability at 10 µM: 72 h; for viability at 10 µM: MOLM-14, compound at 10 μM; for EC50: MOLM-14 cell line, 72 h incubation, CellTiter-Glo, read-out: EC50, growth inhibition of MOLM-14
Outline: (§1)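 72 h compound exposure, 37 °C, 5% CO2, 10% FBS medium; ATP luminescence read after 30 min RT equilibration. Viability as % of H2O/DMSO diluent control; EC50 = dose giving 50% of control signal. Duplicate points minimum.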

[2] = tested on: Huh7 (hepatocellular carcinoma) cell line; test: CellTiter-Glo luminescent cell viability assay, Huh7; type: cell-based, human; details: Homo sapiens, Huh-7; for viability at 4 µM: Huh7, compound at 4 μM; for viability at 4 µM / viability at 10 µM: 72 h; for viability at 10 µM: Huh7, compound at 10 μM; for EC50: Huh7 cell line, 72 h incubation, CellTiter-Glo, read-out: EC50, growth inhibition of Huh7
Outline: as §1

[3] = tested on: A375 (malignant melanoma) cell line; test: CellTiter-Glo luminescent cell viability assay, A375; type: cell-based, human; details: Homo sapiens, A-375; for viability at 4 µM: A375, compound at 4 μM; for viability at 4 µM / viability at 10 µM: 72 h; for viability at 10 µM: A375, compound at 10 μM; for EC50: A375 cell line, 72 h incubation, CellTiter-Glo, read-out: EC50, growth inhibition of A375
Outline: (§2)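 Cells were cultured at 37 °C, 5% CO2 with 10% FBS; adherent lines were plated overnight, suspension MOLM-14 plated 1 h before dosing. Compounds in H2O or DMSO were added at various concentrations for 72 h, and viability was read by luminescence. EC50 is the dose reducing signal to 50% of diluent control.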

[4] = tested on: 786-O (renal adenocarcinoma) cell line; test: CellTiter-Glo luminescent cell viability assay, 786-O; type: cell-based, human; details: Homo sapiens, 786-0; for viability at 4 µM / viability at 10 µM: 786-O, 72 h; for viability at 4 µM: compound at 4 μM; for viability at 10 µM: compound at 10 μM; for EC50: 786-O cell line, 72 h incubation, CellTiter-Glo, read-out: EC50, growth inhibition of 786-O
Outline: as §2

[5] = tested on: PANC-1 (prancreatic carcinoma) cell line; test: CellTiter-Glo luminescent cell viability assay, PANC-1; type: cell-based; details: Homo sapiens; for viability at 4 µM: PANC-1, 4 μM; for viability at 4 µM / viability at 10 µM: 72 h, % of signal of diluent-treated cultures; for viability at 10 µM: PANC-1, 10 μM; for EC50: PANC-1 cell line, 72 h incubation, CellTiter-Glo, read-out: EC50 (growth inhibition assay of PANC-1 cell line)
Description: All cell lines were maintained in medium containing 1% penicillin-streptomycin (Dutscher, P06-07100) and 10% Fetal Bovine Serum (Hyclone Dutscher, RZK35922) cultured at 37° C. with 5% CO2. HepG2 (hepatocellular carcinoma), cell line was cultured in Dulbecco's modified Eagle's medium low glucose (Gibco, 21885025), Huh7 (hepatocellular carcinoma), HCT-116 (colorectal carcinoma), PANC-1 (prancreatic carcinoma) and A375 (malignant melanoma) cell lines were cultured in Dulbecco's modified Eagle's medium (Dutscher, L0103). MOLM-14 (acute myeloid leukemia) cell line was maintained in MEM alpha medium (Gibco, 22561-021). 786-0 (renal adenocarcinoma) cell lines were maintained in RPMI 1640 medium (Dutscher, L0498).
Cell viability was measured using the CellTiter-Glo® luminescent cell viability assay as described by the manufacturer (Promega, Ref G7571) using an Infinite F200Pro luminometer (Tecan). Briefly, for adherent cells, cells were plated onto 96-well plates (white with clear bottom) in 90 μL of media per well and were allowed to grow overnight before the assay. For cells growing in suspension, cells were plated onto 96-well plates 1 h before the assay.
Compounds were resuspended in H2O or DMSO and added at different concentrations to each well, and cell cultures were incubated for 72 h. Each diluent (H2O or DMSO) were used as a control, and all compounds were tested in a constant percentage of H2O or DMSO. On the day of the reading, plates are equilibrated 30 min at room temperature before the addition of 100 μL of CellTiter-Glo® and luminescence was measured using an Infinite F200Pro (Tecan). % cell viability were expressed as a percentage of the signal obtained for cell cultures treated with diluent. EC50 values were determined as the dose of compound required to reduce luminescent values to 50% of the signal obtained for cell cultures treated with diluent. The experimental data were analyzed using a computer program, Graphpad Prism v5 (GraphPad Software, Inc. La Jolla, Calif.). All points were at least done in duplicate.

[6] = tested on: HCT-116 (colorectal carcinoma) cell line; test: CellTiter-Glo luminescent cell viability assay, HCT-116; type: cell-based, human; details: Homo sapiens; for viability at 4 µM: HCT-116, compound at 4 μM; for viability at 4 µM / viability at 10 µM: 72 h; for viability at 10 µM: HCT-116, compound at 10 μM; for EC50: HCT-116 cell line, 72 h incubation, CellTiter-Glo, read-out: EC50, growth inhibition of HCT-116
Outline: as §2

[7] = tested on: HepG2 (hepatocellular carcinoma) cell line; test: CellTiter-Glo luminescent cell viability assay, HepG2; type: cell-based, human; details: Homo sapiens; for viability at 4 µM / viability at 10 µM: HepG2, HepG, 72 h; for viability at 4 µM: compound at 4 μM; for viability at 10 µM: compound at 10 μM; for EC50: HepG2 cell line, 72 h incubation, CellTiter-Glo, read-out: EC50, growth inhibition of HepG2
Outline: as §1

EC50 [1] [µM]	EC50 [2] [µM]	EC50 [3] [µM]	EC50 [4] [µM]	EC50 [6] [µM]	EC50 [7] [µM]	SMILES	viability at 4 µM [1] [%]	viability at 10 µM [1] [%]	viability at 4 µM [2] [%]	viability at 10 µM [2] [%]	viability at 4 µM [3] [%]	viability at 10 µM [3] [%]	viability at 4 µM [4] [%]	viability at 10 µM [4] [%]	viability at 4 µM [5] [%]	viability at 10 µM [5] [%]	viability at 4 µM [6] [%]	viability at 10 µM [6] [%]	viability at 4 µM [7] [%]	viability at 10 µM [7] [%]	other results
–	–	–	–	–	–	CC(C)(C)NC1CCN(c2c(C#N)c(Nc3cnccn3)nc3ccccc23)CC1 [Compound 3284CN, 2-(pyrazin-2-ylamino)-3-cyano-4-[4-(tertbutylamino)piperidin-1-yl]quinoline]	102	78.3	95.3	79.2	88.3	64.9	89.8	61.9	96.3	69.4	83.4	27.4	90	68.4	–
–	–	–	–	–	–	N#Cc1c(NCc2ccc(Cl)cc2)nc2ccccc2c1N1CCCC(N2CCOCC2)C1 (stereo not shown) [Compound 178CN, 2-(4-chlorobenzylamino)-3-cyano-4-[3-(morpholino)piperidin-1-yl]quinoline]	123	106	95.3	81.9	95.5	90.2	99.6	88.9	100	96.6	95.7	77	101	97.5	–
5 to 10	5 to 10	5 to 10	5 to 10	5 to 10	5 to 10	N#Cc1c(NCc2ccc(Cl)cc2)nc2ccccc2c1N1CCC(NC2CCOCC2)CC1 [Compound 3180CN, 2-(4-chlorobenzylamino)-3-cyano-4-{4-[(tetrahydro-2H-pyran-4-yl)amino]piperidin-1-yl}quinoline]	92.3	22.7	76.5	0.4	88.6	0.3	69.7	0.4	94.9	58.9	59.5	0.2	78.4	0.4	EC50 [5]: 5 to 10 µM
–	–	–	–	–	–	CN(C)C1CCCN(c2c(C#N)c(NCc3ccc(Cl)cc3)nc3ccccc23)C1 (stereo not shown) [Compound 3164CN, 2-(4-chlorobenzylamino)-3-cyano-4-[3-(dimethylamino)piperidin-1-yl]quinoline]	113	74.6	91.9	51.1	89.2	39.3	97.1	64.1	98.7	69.6	91.2	38.4	101	52.9	–
5 to 10	5 to 10	0.5 to 5	0.5 to 5	0.5 to 5	0.5 to 5	Cc1cc(Nc2nc3ccccc3c(N3CCC(NC(C)(C)C)CC3)c2C#N)ccc1F [Compound 3250CN, 2-(3-methyl-4-fluorophenylamino)-3-cyano-4-[4-(tert-butylamino)piperidin-1-yl]quinoline]	87.5	0.6	67	0.5	0.7	0.3	30.3	0.4	94.7	13.1	0.2	0.1	71	0.5	EC50 [5]: 5 to 10 µM
–	–	–	–	–	–	CC(C)(C)NC1CCN(c2c(C#N)c(NCc3ccccn3)nc3ccccc23)CC1 [Compound 3308CN, 2-[(pyridin-2-ylmethyl)amino]-3-cyano-4-[4-(tert-butylamino)piperidin-1-yl]quinoline]	85.8	57.1	88.6	74.2	96.3	67.7	101	81.1	102	99.1	72.8	32.9	92.6	76.5	–
–	–	–	–	–	–	CC(C)(C)OC(=O)NC1CCN(c2c(C#N)c(NCc3ccc(Cl)cc3)nc3ccccc23)CC1 [Compound 182CN, 2-(4-chlorobenzylamino)-3-cyano-4-{4-[(tert-butyloxycarbonyl)amino]piperidin-1-yl}quinoline]	86.9	48.7	86	76.2	94.4	90.2	89.9	83.9	100	95.3	66.9	47.7	91.6	89.8	–
0.5 to 5	5 to 10	0.5 to 5	0.5 to 5	0.5 to 5	0.5 to 5	CN(C)C1CCN(c2c(C#N)c(NCc3ccc(Cl)cc3)nc3ccccc23)CC1 [Compound 3184CN, 2-(4-chlorobenzylamino)-3-cyano-4-[4-(dimethylamino)piperidin-1-yl]quinoline]	71.8	0.6	77.4	0.6	59.5	0.5	54.1	0.7	90.7	24.1	60.5	0.5	72.9	0.7	EC50 [5]: 5 to 10 µM
0.5 to 5	0.5 to 5	0.5 to 5	0.5 to 5	0.5 to 5	0.5 to 5	Clc1ccc(CNc2cc(N3CC[C@@H](Oc4ccccn4)C3)c3ccccc3n2)cc1 [Compound 3026, (3R) 2-(4-chlorobenzylamino)-4-[3-(pyridin-2-yloxy)pyrrolidin-1-yl]quinoline hydrochloride]	–	–	–	–	–	–	–	–	–	–	–	–	–	–	–

Reference: patent US10577362B2, “Substituted 2, 4-diamino-quinoline derivatives for use in the treatment of proliferative diseases” (GENOSCIENCE PHARMA, priority 2016, dated 2020)
